The source of these data is patent US8324390B2, “Tetrazole-substituted anthranilamides as pesticides” (Bayer CropScience AG, priority 2008, dated 2012).

Molecules are shown by their SMILES.

A short description of one data set: log P determination by HPLC (EEC Directive 79/831 Annex V.A8). Format: physicochemical. The following applies: log P. How it is done: The measurements were carried out using an Agilent 1100 LC system with a 50*4.6 Zorbax Eclipse C18 1.8 μm column (oven temperature 55° C., flow rate 2.0 ml/min).
The following mobile phases were used:
Mobile phase A: acetonitrile+1000 μl of formic acid/l
Mobile phase B: Millipore water+900 μl of formic acid/l
Turning to `Cc1cc(C#N)cc(C(=O)NC(C)C2CCC2)c1NC(=O)c1cc(Cn2nnc(C(F)(F)F)n2)nn1-c1ncccc1Cl` (centres unmarked) [Example 90], the chromatographic logP stood at 3.63.

Molecule `Cc1cc(C#N)cc(C(=O)NCCCCCCO)c1NC(=O)c1cc(Cn2nnc(C(F)(F)F)n2)nn1-c1ncccc1Cl` [Example 94] showed a chromatographic logP of 2.71. `Cc1cc(C#N)cc(C(=O)NCCN)c1NC(=O)c1cc(Cn2nnc(C(F)(F)F)n2)nn1-c1ncccc1Cl` [Example 123] showed a chromatographic logP of 1.63. Still for that read-out and setting: with `CSC[C@H](C)NC(=O)c1cc(C#N)cc(C)c1NC(=O)c1cc(Cn2nnnc2C(F)(F)F)nn1-c1ncccc1Cl` [Example 193] the figure was 2.92.

The molecule `COCCNC(=O)c1cc(C#N)cc(C)c1NC(=O)c1cc(Cn2nnnc2C(F)(F)F)nn1-c1ncccc1Cl` [Example 209] yielded a chromatographic logP of 2.4.

`CCNC(=O)c1cc(I)cc(C)c1NC(=O)c1cc(Cn2nnc(C(F)F)n2)nn1-c1ncccc1Cl` [Example 276]: the chromatographic logP worked out at 2.98. Still for that read-out and setting: with `CC(NC(=O)c1cc(Cl)cc(Cl)c1NC(=O)c1cc(Cn2nnc(C(F)F)n2)nn1-c1ncccc1Cl)C1CC1` (centres unmarked) [Example 283] the figure was 3.23.

`COCC(C)(C)NC(=O)c1cc(C#N)cc(C)c1NC(=O)c1cc(Cn2nnc(C(F)(F)F)n2)nn1-c1ncccc1Cl` [Example 356] had a chromatographic logP of 3.29.

In turn, `CCNC(=O)c1cc(C#N)cc(C)c1NC(=O)c1cc(C(C)n2nnc(C(F)(F)F)n2)nn1-c1ncccc1Cl` (centres unmarked) [Example 429] had a chromatographic logP of 3.11.

Staying with this data set, now noted: reversed-phase HPLC, Zorbax Eclipse C18 column, determined by HPLC according to EEC Directive 79/831 Annex V.A8; read-out: log P.
Regarding `Cc1cc(Br)cc(C(=O)NC(C)(C)C)c1NC(=O)c1cc(Cn2nnc(C(F)(F)F)n2)nn1-c1ncccc1Br` [Example 409], the chromatographic logP amounted to 4. Still for that read-out and setting: to `Cc1cc(C#N)cc(C(=O)NCCC(F)(F)F)c1NC(=O)c1cc(Cn2nnc(C(F)(C(F)(F)F)C(F)(F)F)n2)nn1-c1ncccc1Cl` [Example 414] belongs 3.92; to `CNC(=O)c1cc(Cl)cc(C)c1NC(=O)c1cc(Cn2nnc(C(F)(F)C(F)(F)F)n2)nn1-c1ncccc1Br` [Example 415], 3.36; to `Cc1cc(C#N)cc(C(=O)NCC#N)c1NC(=O)c1cc(Cn2nnc(C(F)(F)C(F)(F)F)n2)nn1-c1ncccc1Br` [Example 416], 2.8. The same measure, in the same setting: to `Cc1cc(Cl)cc(C(=O)NC(C)C)c1NC(=O)c1cc(Cn2nnc(C(F)(F)C(F)(F)F)n2)nn1-c1ncccc1Br` [Example 417] belongs 3.87; to `Cc1cc(Cl)cc(C(N)=O)c1NC(=O)c1cc(Cn2nnc(C(F)(F)C(F)(F)F)n2)nn1-c1ncccc1Br` [Example 418], 3.13; to `Cc1cc(Cl)cc(C(=O)NC(C)(C)C)c1NC(=O)c1cc(Cn2nnc(C(F)(F)C(F)(F)F)n2)nn1-c1ncccc1Br` [Example 419], 4.23. Still for that read-out and setting: with `Cc1cc(Cl)cc(C(=O)NC2CC2)c1NC(=O)c1cc(Cn2nnc(C(F)(F)C(F)(F)F)n2)nn1-c1ncccc1Br` [Example 420] the figure was 3.62. As to `Cc1cc(Cl)cc(C(=O)NCC#N)c1NC(=O)c1cc(Cn2nnc(C(F)(F)C(F)(F)F)n2)nn1-c1ncccc1Br` [Example 421], the chromatographic logP stood at 3.31. Regarding `CNC(=O)c1cc(C#N)cc(C)c1NC(=O)c1cc(Cn2nnc(C(F)(F)C(F)(F)F)n2)nn1-c1ncccc1Br` [Example 422], the chromatographic logP was determined as 3.03.

For `Cc1cc(C#N)cc(C(N)=O)c1NC(=O)c1cc(Cn2nnc(C(F)(F)F)n2)nn1-c1ccccc1Cl` [Example 439], the chromatographic logP is 2.82. On the same count and under the same terms, with `Cc1cc(Br)cc(C(=O)NCC#N)c1NC(=O)c1cc(Cn2nnnc2C(F)(F)F)nn1-c1ncccc1C(F)(F)F` [Example 451] the figure was 2.9. For the molecule `Cc1cc(Br)cc(C(N)=O)c1NC(=O)c1cc(Cn2nnnc2C(F)(F)F)nn1-c1ncccc1C(F)(F)F` [Example 454], the chromatographic logP is 2.72.

For the molecule `CNC(=O)c1cc(S(C)(=O)=O)cc(C)c1NC(=O)c1cc(Cn2nnnc2C(F)(F)F)nn1-c1ccccc1Cl` [Example 524], the chromatographic logP was found to be 2.43.
